Data from publication PMC8571282 (Nature Communications, 2021).
“And” between values parts separate entries of the source, which are not always exact repeats. Equal values may be shown once. Read-outs that look alike come from different tables or passages of the source.

Assays:
[1] = Cytotoxicity assay (PrestoBlue), “M6” HAE; conditions: human
“M6” primary HAE cells = experiment: Cytotoxicity assay (PrestoBlue), “M6” HAE; conditions: M6 HAE, 72 h
[2] = system: SARS-CoV-2 (WA1/2020 and VOC α, β, γ); experiment: microbe, parasite or virus in culture; assay type: cell-based; conditions: Severe acute respiratory syndrome coronavirus 2, Vero C1008; read-out: Half-maximal effective concentrations (EC50), range
[3] = several species; cited from earlier work
[4] = Cytotoxicity assay (PrestoBlue), “F3” HAE; conditions: human
“F3” primary HAE cells = experiment: Cytotoxicity assay (PrestoBlue), “F3” HAE; conditions: F3 HAE, 72 h
[5] = system: SARS-CoV-2 WA1/2020 (lineage A); experiment: microbe, parasite or virus in culture; assay type: cell-based
[6] = Cytotoxicity assay (PrestoBlue), “F2” HAE; conditions: human
[7] = parameters: method as in Mackman et al 2021 (JMC 2021, 64(8), 5001-5017); conditions: rats, ref Mackman et al 2021 (JMC 2021, 64(8), 5001-5017); cited from earlier work
in vitro [8] = conditions: human
in vitro [9] = conditions: human, % cell viability, HEp-2, 3.704 µM, 72 h
[10] = Cytotoxicity assay (PrestoBlue), HCT-8; conditions: human, HCT-8 cells
in vitro [11] = conditions: human; remark: listed apart in the source
[12] = Cytotoxicity assay (PrestoBlue), HEp-2; conditions: human, HEp-2 cells
[13] = system: SARS-CoV-2 BZ/2021 (γ, lineage P.1); experiment: microbe, parasite or virus in culture; assay type: cell-based; conditions: Severe acute respiratory syndrome coronavirus 2, Vero C1008; BZ/2021, VeroE6, mean n=3
[14] = system: SARS-CoV-2 SA/2020 (β, lineage B.1.351); experiment: microbe, parasite or virus in culture; assay type: cell-based; conditions: Severe acute respiratory syndrome coronavirus 2, Vero C1008; SA/2020, VeroE6, mean n=3
in vitro [15] = conditions: human, % cell viability, HCT-8, 0.046 µM, 72 h
[16] = system: well-differentiated primary human airway epithelium cultures; assay type: cell-based
[17] = system: SARS-CoV-2 CA/2020 (α, lineage B.1.1.7); experiment: microbe, parasite or virus in culture; assay type: cell-based; conditions: Severe acute respiratory syndrome coronavirus 2, Vero C1008; CA/2020, VeroE6, mean n=3
[18] = Cytotoxicity assay (PrestoBlue), “M2” HAE; conditions: human
[19] = Single-dose plasma pharmacokinetics in ferrets; conditions: ferret, GS-441524 IV 20 mg/kg, 20 mg/kg
[20] = Cytotoxicity assay (PrestoBlue), BHK-21; conditions: hamster, BHK-21 cells
[21] = system: SARS-CoV-2 gamma isolate (BZ/2021, lineage P.1); experiment: microbe, parasite or virus in culture; assay type: cell-based; conditions: Severe acute respiratory syndrome coronavirus 2
[22] = parameters: method as in Mackman et al 2021 (JMC 2021, 64(8), 5001-5017); conditions: cynomolgus macaques, ref Mackman et al 2021 (JMC 2021, 64(8), 5001-5017); cited from earlier work
[23] = system: SARS-CoV-2-Nluc (WA1/2020-nano luciferase); experiment: microbe, parasite or virus in culture; assay type: cell-based

Structure (SMILES): N#C[C@@]1(c2ccc3c(N)ncnn23)O[C@H](CO)[C@@H](O)[C@H]1O [GS-441524]
- CC50 at 72 h [1]: > 100000 nM
- % cell viability (“M6” primary HAE cells; 0.046 µM): 87%
- % cell viability (“M6” primary HAE cells; 3.704 µM): 86%
- EC50 [2]: 110 to 680 nM
- oral bioavailability (in words) [3]: poor oral bioavailability
- viability at 72 h, 0.046 µM ([4]; female, “F3” primary human airway epithelial (HAE) cells, % cell viability, F3 HAE, 0.046 µM): 87%
- viability at 72 h, 100 µM ([4]; % cell viability, F3 HAE, 100 µM): 84%
- CC50 at 72 h ([4]; CC50, “F3” HAE): > 100000 nM
- % cell viability (“F3” primary HAE cells; 0.046 µM): 90%
- % cell viability (“F3” primary HAE cells; 100 µM): 86% and 74%
- EC50 ([5]; Severe acute respiratory syndrome coronavirus 2, Vero C1008, WA1/2020, VeroE6, mean n=3): 680 nM
- Virus yield reduction ([5]; WA1/2020, VeroE6, 5.55556 µM, vehicle = 0): -3.43
- viability at 72 h, 0.046 µM ([6]; female, “F2” primary human airway epithelial (HAE) cells, % cell viability, F2 HAE, 0.046 µM): 92%
- viability at 72 h, 100 µM ([6]; % cell viability, F2 HAE, 100 µM): 86%
- CC50 at 72 h ([6]; CC50, “F2” HAE): > 100000 nM
- oral F [7]: 12%
- CC50 at 48 h (in vitro [8]): > 50000 nM
- viability at 72 h, 3.704 µM (in vitro [9]): 93%
- viability at 72 h, 0.046 µM ([10]; % cell viability, HCT-8, 0.046 µM, 72 h): 74%
- viability at 72 h, 1.235 µM ([10]; % cell viability, HCT-8, 1.235 µM, 72 h): 89%
- viability at 72 h, 100 µM ([10]; % cell viability, HCT-8, 100 µM, 72 h): 62%
- CC50 at 72 h ([10]; CC50, HCT-8, 72 h): > 100000 nM
- viability at 72 h, 3.704 µM (in vitro [11]; female, % cell viability): 90%
- CC50 at 72 h (in vitro [11]): > 100000 nM
- viability at 72 h, 100 µM (in vitro [11]; % cell viability): 62%
- viability at 72 h, 0.046 µM ([12]; % cell viability, HEp-2, 0.046 µM, 72 h): 52%
- viability at 72 h, 100 µM ([12]; % cell viability, HEp-2, 100 µM, 72 h): 51%
- CC50 at 72 h ([12]; CC50, HEp-2, 72 h): > 100000 nM
- EC50 [13]: 550 nM
- EC50 [14]: 340 nM
- viability at 72 h, 0.046 µM (in vitro [15]): 88%
- basolateral drug concentration at which epithelium integrity (TEER) was fully preserved [16]: ≥ 3 µM
- EC50 [17]: 110 nM
- CC50 at 72 h [18]: > 100000 nM
- plasma concentration of GS-441524 ([19]; 0.25 h): 40.5 and 46.6 and 24.1
- plasma concentration of GS-441524 ([19]; 0.48 h): 62.4 and 57.2 and 43
- plasma concentration of GS-441524 ([19]; 0.58 h): 51.5 and 48.2 and 37.8
- plasma concentration of GS-441524 ([19]; 4 h): 8.65 and 7.17
- plasma concentration of GS-441524 ([19]; 8 h): 2.1 and 1.85 and 1.83
- plasma concentration of GS-441524 ([19]; 12 h): 0.669 and 0.467 and 0.448
- CC50 at 72 h [20]: > 100000 nM
- viability at 72 h, 0.046 µM ([20]; % cell viability, BHK-21, 0.046 µM, 72 h): 64%
- viability at 72 h, 1.235 µM ([20]; % cell viability, BHK-21, 1.235 µM, 72 h): 87%
- EC50 [21]: 2830 nM
- oral F [22]: 3.4%
- A549-hACE2 SARS-CoV-2 Nluc (EC50 determination), normalized signal ([23]; Conc 0.005 µM, replicate values of the experiments): 114.03
- A549-hACE2 SARS-CoV-2 Nluc (EC50 determination), normalized signal ([23]; Conc 0.02 µM, replicate values of Exp 1-6): 66.74 and 93.22 and 117.07 and 119.81 and 81.21
- A549-hACE2 SARS-CoV-2 Nluc (EC50 determination), normalized signal ([23]; Conc 0.07 µM, replicate values of Exp 1-6): 114.55 and 112.96 and 134.59 and 90.75
- A549-hACE2 SARS-CoV-2 Nluc (EC50 determination), normalized signal ([23]; Conc 0.21 µM, replicate values of Exp 1-6): 92.40 and 126.15
- A549-hACE2 SARS-CoV-2 Nluc (EC50 determination), normalized signal ([23]; Conc 3.333 µM, replicate values of the experiments): 14.96 and 23.34 and 25.42
- A549-hACE2 SARS-CoV-2 Nluc (EC50 determination), normalized signal ([23]; Conc 5.56 µM, replicate values of Exp 1-6): 3.54 and 6.01 and 4.94 and 3.43 and 3.57 and 2.25 and 0.47 and 0.46 and 0.35 and 0.41 and 5.69
- A549-hACE2 SARS-CoV-2 Nluc (EC50 determination), normalized signal ([23]; Conc 10.000 µM, replicate values of the experiments): 0.35 and 0.30 and 0.32 and 0.31
- A549-hACE2 SARS-CoV-2 Nluc (EC50 determination), normalized signal ([23]; Conc 16.67 µM, replicate values of Exp 1-6): 1.67 and 0.36 (2×) and 0.34 and 1.12 and 1.72 and 1.07 and 0.18 (2×) and 0.21 and 0.23 and 0.31
- A549-hACE2 SARS-CoV-2 Nluc (EC50 determination), normalized signal ([23]; Conc 50.00 µM, replicate values of Exp 1-6): 0.89 and 0.17 (2×) and 0.16 (3×) and 0.55 and 0.87 and 0.59 and 0.19 and 0.20 and 0.18
- EC50 ([23]; Severe acute respiratory syndrome coronavirus 2, WA1/2020-nano luciferase, A549-ACE2, mean ± SD): 1400 ± 900 nM
